The record followed here is patent US9932350B2, “Inhibitors of IRAK4 activity” (MERCK SHARP & DOHME CORP., priority 2014, dated 2018).

Structures are written as SMILES.

Chain of GST tagged IRAK4 (Q9NWZ3 whole entry): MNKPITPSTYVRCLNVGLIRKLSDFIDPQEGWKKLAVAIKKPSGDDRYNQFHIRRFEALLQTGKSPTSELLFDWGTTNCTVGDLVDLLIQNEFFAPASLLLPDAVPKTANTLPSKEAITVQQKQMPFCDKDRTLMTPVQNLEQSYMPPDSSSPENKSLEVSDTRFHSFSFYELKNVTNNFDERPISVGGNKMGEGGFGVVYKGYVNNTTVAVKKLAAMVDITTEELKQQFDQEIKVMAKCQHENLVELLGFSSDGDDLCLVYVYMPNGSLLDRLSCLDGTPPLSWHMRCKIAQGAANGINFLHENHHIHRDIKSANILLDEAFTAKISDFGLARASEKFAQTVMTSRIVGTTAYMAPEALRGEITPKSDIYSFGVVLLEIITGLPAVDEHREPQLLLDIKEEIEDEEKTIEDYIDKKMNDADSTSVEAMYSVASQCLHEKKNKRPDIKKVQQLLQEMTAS

This experiment addresses GST tagged IRAK4 (Homo sapiens (Human), UniProt Q9NWZ3). Nature of the experiment: IRAK4 Kinase Assay (IMAP fluorescence polarization). Format: biochemical. The settings on record: 0.5 nM GST tagged IRAK4, 100 μM ATP, 30 minutes at 25° C. Here is the method:
The kinase activity of IRAK4 is determined by its ability to catalyze the phosphorylation of a fluorescent polypeptide substrate. The extent of phosphorylation is measured using the IMAP technology (Molecular Devices) where the phosphorylated fluorescent substrate binds to the large M(III)-based nanoparticles which reduces the rotational speed of the substrate and thus increases its fluorescent polarization (FP).
20 μL reaction mixture contains 10 mM TriHCl, pH 7.2, 0.5 nM GST tagged IRAK4 (SignalChem), 100 nM fluorescent peptide substrate (RP7030, Molecular Devices), 100 μM ATP, 1 mM DDT, 1 mM MgCl2, and 0.01% Tween 20. The reaction is initiated by the addition of ATP. After incubation for 30 minutes at 25° C., 60 μL of Progressive IMAP Reagent (Molecular Devices) is added to stop the reaction. Change in RP7030's FP is determined by a FP reader (Analyst HT, LJL BioSystems).
In general terms: Fluorescence polarisation rises when a labelled molecule tumbles more slowly, as on binding a larger partner.
`N#Cc1ccc2ncnc(N[C@H]3CC[C@H](N4CCOC5CCCC54)CC3)c2c1` (stereo partly drawn) [Example 3-24, 4-({trans-4-[(4aS,7aS or 4aR,7aR)-hexahydrocyclopenta[b] [1,4]oxazin-4(4aH)-yl]cyclohexyl}amino) quinazoline-6-carbonitrile]: the half-inhibitory concentration (IC50) was 11 nM. The figure for `N#Cc1ccc2ncnc(N[C@H]3CC[C@H](N4CCCC5COCCC54)CC3)c2c1` (stereo partly drawn) [Example 3-25, 4-{[trans-4-(hexahydro-2H-pyrano[4,3-b]pyridin-1(5H)-yl)cyclohexyl]amino} quinazoline-6-carbonitrile] is 53 nM; for `N#Cc1ccc2ncnc(N[C@H]3CC[C@H](N4CCOC5(CC5)C4)CC3)c2c1` [Example 3-26, 4-{[trans-4-(4-oxa-7-azaspiro[2.5]oct-7-yl)cyclohexyl]amino} quinazoline-6-carbonitrile] it is 46 nM; for `N#Cc1ccc2ncnc(N[C@H]3CC[C@H](N4CCOC(CF)C4)CC3)c2c1` (stereo partly drawn) [Example 3-27, 4-({trans-4-[2-(fluoromethyl)morpholin-4-yl]cyclohexyl}amino) quinazoline-6-carbonitrile] it is 8 nM. Then `C[C@H]1COCCN1[C@H]1CC[C@H](Nc2ncnc3ccc(C#N)cc23)CC1` [Example 3-28, 4-({trans-4-[(3S)-3-methylmorpholin-4-yl]cyclohexyl}amino) quinazolin-6-carbonitrile], with 47 nM.

`COC1CN([C@H]2CC[C@H](Nc3ncnc4ccc(C#N)cc34)CC2)C1` [Example 3-29, 4-{[trans-4-(3-methoxyazetidin-1-yl)cyclohexyl]amino} quinazoline-6-carbonitrile] had a half-maximal inhibitory concentration (IC50) of 11 nM. Then `CN1CCN([C@H]2CC[C@H](Nc3ncnc4ccc(C#N)cc34)CC2)CC1` [Example 3-30, 4-{[trans-4-(4-methylpiperazin-1-yl)cyclohexyl]amino} quinazoline-6-carbonitrile], with 17 nM; and `C[C@@H]1COCCN1[C@H]1CC[C@H](Nc2ncnc3ccc(C#N)cc23)CC1` [Example 3-31, 4-({trans-4-[(3R)-3-methylmorpholin-4-yl]cyclohexyl}amino) quinazoline-6-carbonitrile], with 10 nM. Then `CN(C1CC1)[C@H]1CC[C@H](Nc2ncnc3ccc(C#N)cc23)CC1` [Example 3-32, 4-({trans-4-[cyclopropyl(methyl)amino]cyclohexyl}amino) quinazoline-6-carbonitrile], with 15 nM; and `N#Cc1ccc2ncnc(N[C@H]3CC[C@H](N4CCCC(F)(F)C4)CC3)c2c1` [Example 3-33, 4-{[trans-4-(3,3-difluoropiperidin-1-yl)cyclohexyl]amino} quinazoline-6-carbonitrile], with 132 nM; and `N#Cc1ccc2ncnc(N[C@H]3CC[C@H](N4CC[C@H](O)C4)CC3)c2c1` [Example 3-34, 4-({trans-4-[(3S)-3-hydroxypyrrolidin-1-yl]cyclohexyl}amino) quinazoline-6-carbonitrile], with 33 nM. Then `N#Cc1ccc2ncnc(N[C@H]3CC[C@H](N4CCCC(F)C4)CC3)c2c1` (stereo partly drawn) [Example 3-35, 4-{[trans-4-(3-fluoropiperidin-1-yl)cyclohexyl]amino} quinazoline-6-carbonitrile], with 38 nM. As to `CC1(O)CCN([C@H]2CC[C@H](Nc3ncnc4ccc(C#N)cc34)CC2)C1` (stereo partly drawn) [Example 3-36, 4-{[trans-4-(3-hydroxy-3-methylpyrrolidin-1-yl)cyclohexyl]amino} quinazoline-6-carbonitrile], the IC50 turned out to be 25 nM. `N#Cc1ccc2ncnc(N[C@H]3CC[C@H](N4CC(N5CCOCC5)C4)CC3)c2c1` [Example 3-37, 4-({trans-4-[3-(morpholin-4-yl)azetidin-1-yl]cyclohexyl}amino) quinazoline-6-carbonitrile] registered an IC50 of 41 nM.

The compound `N#Cc1ccc2ncnc(N[C@H]3CC[C@H](N4CC[C@@H](O)C4)CC3)c2c1` [Example 3-38, 4-({trans-4-[(3R)-3-hydroxypyrrolidin-1-yl]cyclohexyl}amino) quinazoline-6-carbonitrile] came in with an IC50 of 15 nM.

Broadly, the IC50 is the concentration needed to halve the response being measured. Lower therefore signals higher potency.
